Test results taken from PubChem BioAssay AID200 (DTP/NCI, 2004).
Several values for one entry are separate records, joined by “and”; a condition that tells them apart may be missing. Equal values may be shown once. Toxic doses and inconclusive results are not listed.

System: B6C3F1 mice, B16 melanoma ip, median survival T/C
Assay: NCI In Vivo Anticancer Drug Screen. Data for tumor model B16 Melanoma (intraperitoneal) in B6C3F1 mice
Conditions: endpoint: median survival time, higher = longer survival
Procedure, shortened: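 Antitumor effect was judged in mice with transplanted tumors by dividing the treated group's survival measure by that of vehicle controls.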

[1] = dose: 6.25 mg/kg/injection, schedule: Q01DX009 (ip), vehicle: saline with Tween-80
[2] = dose: 25.0 mg/kg/injection, schedule: Q01DX009 (ip), vehicle: saline with Tween-80
[3] = dose: 50.0 mg/kg/injection, schedule: Q01DX009 (ip), vehicle: saline with Tween-80
[4] = dose: 100.0 mg/kg/injection, schedule: Q01DX009 (ip), vehicle: saline with Tween-80
[5] = dose: 200.0 mg/kg/injection, schedule: Q01DX009 (ip), vehicle: distilled water + Tween-80
[6] = dose: 400.0 mg/kg/injection, schedule: Q01DX009 (ip), vehicle: distilled water + Tween-80
[7] = dose: 12.5 mg/kg/injection, schedule: Q01DX009 (ip), vehicle: saline with Tween-80
[8] = dose: 25.0 mg/kg/injection, schedule: Q01DX009 (ip), vehicle: water
[9] = dose: 50.0 mg/kg/injection, schedule: Q01DX009 (ip), vehicle: water
[10] = dose: 100.0 mg/kg/injection, schedule: Q01DX009 (ip), vehicle: water
[11] = dose: 200.0 mg/kg/injection, schedule: Q01DX009 (ip), vehicle: saline with Tween-80

COCC1OC2OC3C(COC)OC(OC4C(COC)OC(OC5C(COC)OC(OC6C(COC)OC(OC7C(COC)OC(OC8C(COC)OC(OC1C(O)C2O)C(O)C8O)C(O)C7O)C(O)C6O)C(O)C5O)C(O)C4O)C(O)C3O (configuration not stated) (tested in a mixture with another compound)
T/C (dose: 25.0 mg/kg/injection, schedule: Q01DX009 (ip), vehicle: Klucel (hydroxypropylcellulose) (HPC)): 87 % of control | T/C (dose: 25.0 mg/kg/injection, schedule: Q04HX027 (ip), vehicle: Klucel (hydroxypropylcellulose) (HPC)): 93 % of control | T/C (dose: 50.0 mg/kg/injection, schedule: Q01DX009 (ip), vehicle: Klucel (hydroxypropylcellulose) (HPC)): 90 % of control | T/C (dose: 50.0 mg/kg/injection, schedule: Q01DX009 (oral), vehicle: Klucel (hydroxypropylcellulose) (HPC)): 93 % of control | T/C (dose: 50.0 mg/kg/injection, schedule: Q04HX027 (ip), vehicle: Klucel (hydroxypropylcellulose) (HPC)): 86 % of control | T/C (dose: 50.0 mg/kg/injection, schedule: Q04HX027 (oral), vehicle: Klucel (hydroxypropylcellulose) (HPC)): 97 % of control | T/C (dose: 100.0 mg/kg/injection, schedule: Q01DX009 (ip), vehicle: Klucel (hydroxypropylcellulose) (HPC)): 105 % of control | T/C (dose: 100.0 mg/kg/injection, schedule: Q01DX009 (oral), vehicle: Klucel (hydroxypropylcellulose) (HPC)): 89 % of control and 93 % of control | T/C (dose: 100.0 mg/kg/injection, schedule: Q04HX027 (ip), vehicle: Klucel (hydroxypropylcellulose) (HPC)): 97 % of control | T/C (dose: 100.0 mg/kg/injection, schedule: Q04HX027 (oral), vehicle: Klucel (hydroxypropylcellulose) (HPC)): 106 % of control | T/C (dose: 200.0 mg/kg/injection, schedule: Q01DX009 (ip), vehicle: Klucel (hydroxypropylcellulose) (HPC)): 90 % of control | T/C (dose: 200.0 mg/kg/injection, schedule: Q04HX027 (oral), vehicle: Klucel (hydroxypropylcellulose) (HPC)): 105 % of control | T/C (dose: 400.0 mg/kg/injection, schedule: Q01DX009 (ip), vehicle: Klucel (hydroxypropylcellulose) (HPC)): 86 % of control | T/C (dose: 400.0 mg/kg/injection, schedule: Q01DX009 (oral), vehicle: Klucel (hydroxypropylcellulose) (HPC)): 86 % of control and 102 % of control | T/C (dose: 400.0 mg/kg/injection, schedule: Q04HX027 (oral), vehicle: Klucel (hydroxypropylcellulose) (HPC)): 101 % of control | T/C (dose: 800.0 mg/kg/injection, schedule: Q01DX009 (oral), vehicle: Klucel (hydroxypropylcellulose) (HPC)): 93 % of control | T/C (dose: 800.0 mg/kg/injection, schedule: Q04HX027 (oral), vehicle: Klucel (hydroxypropylcellulose) (HPC)): 110 % of control | T/C (dose: 1600.0 mg/kg/injection, schedule: Q01DX009 (oral), vehicle: Klucel (hydroxypropylcellulose) (HPC)): 92 % of control | T/C (dose: 1600.0 mg/kg/injection, schedule: Q04HX027 (oral), vehicle: Klucel (hydroxypropylcellulose) (HPC)): 103 % of control | T/C (dose: 3200.0 mg/kg/injection, schedule: Q01DX009 (oral), vehicle: Klucel (hydroxypropylcellulose) (HPC)): 95 % of control

O=C(Oc1ccc(-c2ccc(Br)cc2)cc1)c1ccco1
T/C (dose: 0.78 mg/kg/injection, schedule: Q01DX009 (ip), vehicle: saline with Tween-80): 107 % of control | T/C (dose: 1.56 mg/kg/injection, schedule: Q01DX009 (ip), vehicle: saline with Tween-80): 106 % of control | T/C (dose: 3.13 mg/kg/injection, schedule: Q01DX009 (ip), vehicle: saline with Tween-80): 102 % of control | T/C [1]: 111 % of control and 100 % of control | T/C [2]: 92 % of control | T/C [3]: 97 % of control

CN(C)c1cccc(F)c1C(=O)NC(=O)Nc1ccc(Cl)cc1
T/C (dose: 37.5 mg/kg/injection, schedule: Q01DX009 (ip), vehicle: saline with Tween-80): 97 % of control | T/C (dose: 75.0 mg/kg/injection, schedule: Q01DX009 (ip), vehicle: saline with Tween-80): 111 % of control | T/C (dose: 150.0 mg/kg/injection, schedule: Q01DX009 (ip), vehicle: saline with Tween-80): 101 % of control

CC(C)(C)OC(=O)NCC(=O)ON1C(=O)CCC1=O
T/C [3]: 100 % of control | T/C [4]: 91 % of control

NC(=O)Oc1cccc(OC(N)=O)c1
T/C (dose: 12.5 mg/kg/injection, schedule: Q01DX009 (ip), vehicle: distilled water + Tween-80): 108 % of control | T/C (dose: 25.0 mg/kg/injection, schedule: Q01DX009 (ip), vehicle: distilled water + Tween-80): 107 % of control | T/C (dose: 50.0 mg/kg/injection, schedule: Q01DX009 (ip), vehicle: distilled water + Tween-80): 99 % of control | T/C (dose: 100.0 mg/kg/injection, schedule: Q01DX009 (ip), vehicle: distilled water + Tween-80): 96 % of control | T/C [5]: 113 % of control | T/C [6]: 105 % of control

COC(=O)Nc1nc2ccc(C3(c4ccc(F)cc4)OCCO3)cc2[nH]1
T/C [1]: 93 % of control | T/C [7]: 118 % of control | T/C (dose: 12.5 mg/kg/injection, schedule: Q01DX009 (ip), vehicle: saline): 117 % of control | T/C [3]: 172 % of control

O=C(NO)c1ccc(O)c(O)c1
T/C (dose: 22.5 mg/kg/injection, schedule: Q03HX024 (ip), vehicle: water): 106 % of control | T/C [8]: 100 % of control | T/C (dose: 45.0 mg/kg/injection, schedule: Q03HX024 (ip), vehicle: water): 111 % of control | T/C [9]: 109 % of control and 100 % of control | T/C (dose: 60.0 mg/kg/injection, schedule: Q01DX009 (ip), vehicle: water): 110 % of control | T/C (dose: 90.0 mg/kg/injection, schedule: Q03HX024 (ip), vehicle: water): 116 % of control | T/C [10]: 111 % of control and 116 % of control and 99 % of control | T/C (dose: 116.0 mg/kg/injection, schedule: Q01DX009 (ip), vehicle: other): 116 % of control | T/C (dose: 120.0 mg/kg/injection, schedule: Q01DX009 (ip), vehicle: water): 110 % of control | T/C (dose: 176.0 mg/kg/injection, schedule: Q01DX009 (ip), vehicle: other): 120 % of control | T/C (dose: 176.0 mg/kg/injection, schedule: Q01DX009 (ip), vehicle: water): 120 % of control | T/C (dose: 180.0 mg/kg/injection, schedule: Q03HX024 (ip), vehicle: water): 119 % of control | T/C (dose: 200.0 mg/kg/injection, schedule: Q01DX009 (ip), vehicle: water): 112 % of control and 123 % of control | T/C (dose: 270.0 mg/kg/injection, schedule: Q03HX024 (ip), vehicle: water): 87 % of control

S=c1sc2ccccc2n1CN1CCOCC1
T/C [7]: 99 % of control and 102 % of control | T/C (dose: 18.0 mg/kg/injection, schedule: Q01DX009 (ip), vehicle: saline with Tween-80): 89 % of control | T/C [2]: 109 % of control and 112 % of control | T/C (dose: 30.0 mg/kg/injection, schedule: Q01DX009 (ip), vehicle: saline with Tween-80): 91 % of control | T/C [3]: 113 % of control and 100 % of control | T/C (dose: 83.33 mg/kg/injection, schedule: Q01DX009 (ip), vehicle: saline with Tween-80): 100 % of control | T/C [4]: 102 % of control and 105 % of control | T/C (dose: 138.88 mg/kg/injection, schedule: Q01DX009 (ip), vehicle: saline with Tween-80): 106 % of control | T/C [11]: 95 % of control and 101 % of control

O=Cc1c(O)c2ccccc2[nH]c1=O
T/C [1]: 109 % of control and 107 % of control | T/C [7]: 108 % of control and 105 % of control | T/C [2]: 119 % of control

COC1/C=C/O[C@@]2(C)Oc3c(C)c(O)c4c(O)c(cc(O)c4c3C2=O)NC(=O)/C(C)=C\C=C\[C@H](C)C(O)[C@@H](C)[C@@H](O)[C@@H](C)[C@H](OC(C)=O)[C@@H]1C (some centres not stated)
T/C [7]: 95 % of control | T/C [2]: 97 % of control | T/C [3]: 93 % of control | T/C [4]: 95 % of control

N#CCCSC(=S)C1CCCC1=N (configuration not stated)
T/C [7]: 103 % of control | T/C [2]: 106 % of control | T/C [3]: 98 % of control | T/C [4]: 106 % of control | T/C [11]: 103 % of control | T/C (dose: 400.0 mg/kg/injection, schedule: Q01DX009 (ip), vehicle: saline with Tween-80): 104 % of control

c1ccc(Cc2ccccc2)cc1
T/C [3]: 90 % of control | T/C [4]: 90 % of control | T/C [11]: 95 % of control

Cc1c2ccnc(C(N)=O)c2c(C)c2c1[nH]c1ccccc12
T/C (dose: 62.0 mg/kg/injection, schedule: Q04DX003 (ip), vehicle: distilled water + Tween-80): 96 % of control | T/C (dose: 125.0 mg/kg/injection, schedule: Q04DX003 (ip), vehicle: distilled water + Tween-80): 120 % of control | T/C [5]: 117 % of control | T/C (dose: 250.0 mg/kg/injection, schedule: Q04DX003 (ip), vehicle: distilled water + Tween-80): 106 % of control | T/C [6]: 123 % of control | T/C (dose: 500.0 mg/kg/injection, schedule: Q04DX003 (ip), vehicle: distilled water + Tween-80): 100 % of control | T/C (dose: 1000.0 mg/kg/injection, schedule: Q04DX003 (ip), vehicle: distilled water + Tween-80): 124 % of control

O=NNc1cccnc1
T/C (dose: 6.25 mg/kg/injection, schedule: Q01DX009 (ip), vehicle: water): 107 % of control | T/C (dose: 12.5 mg/kg/injection, schedule: Q01DX009 (ip), vehicle: water): 121 % of control | T/C [8]: 111 % of control | T/C [9]: 100 % of control | T/C [10]: 107 % of control
